Assay results from patent US6608047B2, “Use of low dosage amount of spironolactone for treatment of cardiovascular disease” (Pharmacia Corporation, priority 1995, dated 2003).

Legend:
plasma aldosterone = details: hypertensive patients; J. Staessen et al 1981; cited from earlier work
[1] = test system: patients with symptomatic heart failure; assay: Human clinical trial (spironolactone dose-ranging study): cardiac assessments, weight and vital signs; format: in vivo
From the text: (§1) All statistical methods were two-sided.

myocardial fibrosis = details: cited from earlier work
[2] = test system: patients with symptomatic heart failure; assay: Human clinical trial (spironolactone dose-ranging study): clinical laboratory values and neurohormones; details: for Creatinine, Week 12 Mean Change / Hematocrit, Week 12 Mean Change / Hemoglobin, Week 12 Mean Change / N-Terminal ANF, Week 12 Mean Change / PRA, Week 12 Mean Change / Potassium, Week 12 Mean Change / Sodium, Week 12 Mean Change / Urinary aldosterone, Week 12 Mean Change: Week 12 vs baseline
[3] = test system: patients with symptomatic heart failure; assay: Human clinical trial (spironolactone dose-ranging study): hyperkalemia, adverse events, hospitalizations, deaths
From the text: as §1
In this analysis, the risk ratio can be thought of as the probability that the patient with the risk factor will develop hyperkalemia, relative to the probability that a patient without the risk factor will develop it.

hypertensive-rat cohort = details: spironolactone sub-cutaneously; C.G. Brilla et al 1993; cited from earlier work

For `C[C@H](CS)C(=O)N1CCC[C@H]1C(=O)O` [Captopril, captopril], the “Plasma aldosterone despite continued ACE inhibition” value (plasma aldosterone) is listed as “gradual return of plasma aldosterone to baseline levels”.
With `CC(=O)S[C@@H]1CC2=CC(=O)CC[C@]2(C)[C@H]2CC[C@@]3(C)[C@@H](CC[C@@]34CCC(=O)O4)[C@H]12` [Spironolactone, 17-hydroxy-7α-mercapto-3-oxo-17α-pregn-4-ene-21-carboxylic acid γ-lactone acetate] the “Mean Change in Supine diastolic BP from Baseline to Week 12” value (“Mean Change in Supine diastolic BP” below) ([1]; 12.5 mg/d) was −0.19 (9.13), the “Mean Change in Supine pulse from Baseline to Week 12” value (from here on “Mean Change in Supine pulse”) ([1]; 12.5 mg/d) was −3.70 (9.56) BPM and the “Mean Change in Supine systolic BP from Baseline to Week 12” value (“Mean Change in Supine systolic BP” below) ([1]; 12.5 mg/d) was 1.84 (11.82). For the same molecule, the “Mean Change in Weight from Baseline to Week 12” value (“Mean Change in Weight” for short) ([1]; 12.5 mg/d) was 0.59 (3.00), the “Mean systolic and diastolic blood pressure (standing and supine)” value ([1]; 25 mg, 50 mg and 75 mg groups, all visits) was “decreases in mean systolic and diastolic blood pressure” and the “Mean Change in Supine diastolic BP” value ([1]; 25 mg/d) was −2.74 (9.57). The “Mean Change in Supine pulse” value ([1]; 25 mg/d) was −1.40 (10.00) BPM, the “Mean Change in Supine systolic BP” value ([1]; 25 mg/d) was −4.46 (13.97) and the “Mean Change in Weight” value ([1]; 25 mg/d) was −0.16 (3.02). For the same molecule, the “Mean Change in Supine diastolic BP” value ([1]; 50 mg/d) was −5.11 (11.11), the “Mean Change in Supine pulse” value ([1]; 50 mg/d) was −3.21 (11.27) BPM and the “Mean Change in Supine systolic BP” value ([1]; 50 mg/d) was −7.04 (15.83). For the same molecule, the “Mean Change in Weight” value ([1]; 50 mg/d) was 0.62 (2.05), the “Changes from baseline in body weight” value ([1]; 75 mg dose group, Day 9 and Week 4) was “more weight loss than other patients” and the “Mean Change in Supine diastolic BP” value ([1]; 75 mg/d) was −5.91 (9.05). For the same molecule, the “Mean Change in Supine pulse” value ([1]; 75 mg/d) was −1.07 (13.79) BPM, the “Mean Change in Supine systolic BP” value ([1]; 75 mg/d) was −5.68 (15.62) and the “Mean Change in Weight” value ([1]; 75 mg/d) was −0.81 (2.70). The “Sodium retention score, dose response” value ([1]; Day 9 (p=0.019), not seen at later visits) was “more reduction in sodium retention score”, the “Pulse in the supine position, dose response” value ([1]; Week 4 (p-value=0.045)) was “greater decreases in pulse in the supine position at higher doses” and the “Changes in loop diuretic therapy” value ([1]; Week 8 (p=0.004), higher doses vs placebo, not observed at Week 12) was “decreases in the loop diuretic dose”. For the same molecule, the “NYHA Class” value ([1]; spironolactone groups vs placebo, difference not statistically significant) was “trend toward improvement”, the “Myocardial fibrosis in animal models” value (myocardial fibrosis; D. Klug et al 1993) was “prevents myocardial fibrosis” and the “Fibrosis in animal models” value (myocardial fibrosis; irrespective of left ventricular hypertrophy and hypertension, C.G. Brilla et al 1993) was “prevent fibrosis”. The “Creatinine, Week 12 Mean Change” value ([2]; 12.5 mg/d) was 6.83 µmol/L, the “Hematocrit, Week 12 Mean Change” value ([2]; 12.5 mg/d) was 0.00% and the “Hemoglobin, Week 12 Mean Change” value ([2]; 12.5 mg/d) was 0.12 mmol/L/Fe. The “N-Terminal ANF, Week 12 Mean Change” value ([2]; 12.5 mg/d) was -287.30 pmol/L, the “PRA, Week 12 Mean Change” value ([2]; 12.5 mg/d) was 9.90 NgAngl/L/s and the “Potassium, Week 12 Mean Change” value ([2]; 12.5 mg/d) was 0.18 mmol/L. The “Sodium, Week 12 Mean Change” value ([2]; 12.5 mg/d) was -1.61 mmol/L, the “Urinary aldosterone, Week 12 Mean Change” value ([2]; 12.5 mg/d) was 4.21 nmol/D and the “Creatinine, Week 12 Mean Change” value ([2]; 25 mg/d) was 9.30 µmol/L. The “Hematocrit, Week 12 Mean Change” value ([2]; 25 mg/d) was −0.02%, the “Hemoglobin, Week 12 Mean Change” value ([2]; 25 mg/d) was −0.20 mmol/L/Fe and the “N-Terminal ANF, Week 12 Mean Change” value ([2]; 25 mg/d) was -294.60 pmol/L. For the same molecule, the “PRA, Week 12 Mean Change” value ([2]; 25 mg/d) was 9.33 NgAngl/L/s, the “Potassium, Week 12 Mean Change” value ([2]; 25 mg/d) was 0.37 mmol/L and the “Sodium, Week 12 Mean Change” value ([2]; 25 mg/d) was -1.85 mmol/L. For the same molecule, the “Urinary aldosterone, Week 12 Mean Change” value ([2]; 25 mg/d) was 4.27 nmol/D, the “Creatinine, Week 12 Mean Change” value ([2]; 50 mg/d) was 14.06 µmol/L and the “Hematocrit, Week 12 Mean Change” value ([2]; 50 mg/d) was −0.02%. For the same molecule, the “Hemoglobin, Week 12 Mean Change” value ([2]; 50 mg/d) was −0.31 mmol/L/Fe, the “N-Terminal ANF, Week 12 Mean Change” value ([2]; 50 mg/d) was -351.30 pmol/L and the “PRA, Week 12 Mean Change” value ([2]; 50 mg/d) was 13.18 NgAngl/L/s. The “Potassium, Week 12 Mean Change” value ([2]; 50 mg/d) was 0.51 mmol/L, the “Sodium, Week 12 Mean Change” value ([2]; 50 mg/d) was -2.52 mmol/L and the “Urinary aldosterone, Week 12 Mean Change” value ([2]; 50 mg/d) was 8.11 nmol/D. For the same molecule, the “Creatinine, Week 12 Mean Change” value ([2]; 75 mg/d) was 21.90 µmol/L, the “Hematocrit, Week 12 Mean Change” value ([2]; 75 mg/d) was −0.03% and the “Hemoglobin, Week 12 Mean Change” value ([2]; 75 mg/d) was −0.46 mmol/L/Fe. The “N-Terminal ANF, Week 12 Mean Change” value ([2]; 75 mg/d) was -370.60 pmol/L, the “PRA, Week 12 Mean Change” value ([2]; 75 mg/d) was 10.23 NgAngl/L/s and the “Potassium, Week 12 Mean Change” value ([2]; 75 mg/d) was 0.58 mmol/L. For the same molecule, the “Sodium, Week 12 Mean Change” value ([2]; 75 mg/d) was -3.37 mmol/L, the “Urinary aldosterone, Week 12 Mean Change” value ([2]; 75 mg/d) was 11.13 nmol/D and the “Change from baseline in PRA, dose-response” value ([2]; Day 9, Week 4 and Week 12, higher doses) was “greater increases in PRA”. The “N-Terminal Atrial Natriuretic Factor (ANF), change from baseline” value ([2]; all active treatments, all treatment visits) was “decreases from baseline”, the “Urinary aldosterone excretion, change from baseline” value ([2]; all treatment groups, 12 week visit) was “mean increases from baseline” and the “Change from baseline in serum potassium, dose-response” value ([2]; all treatment period visits, higher doses) was “larger increases in potassium”. The “Deaths during the drug treatment period” value ([3]; all dose groups, 12 weeks) was “No deaths were reported”, the “Hyperkalemia incidence, dose-response” value ([3]; human, in vivo) was “clear dose-response in term of incidence” and the “Patients died within 30 days after the study was completed” value ([3]; previously at the 50 mg dose) was “Three”. The “Fibrosis in the hypertensive-rat cohort” value (hypertensive-rat cohort) was “prevent fibrosis”.
